Test results published in patent US11866430B2, “Naphthyridinone compounds useful as T cell activators” (priority 2018, dated 2024).
Like-named read-outs stand apart in the source and are kept apart here.

Assays:
[1] = tested on: naïve human CD8 T cells; assay: CellTiter-Glo CD8 T Cell Proliferation Assay; format: cell-based; settings: CellTiter-Glo CD8 T cell proliferation, normalized, read-out: CD8 GLO normalized EC50
Protocol: Frozen naïve human CD8 T cells were thawed in RPMI+10% FBS, incubated for 2 h in 37° C., and counted. The 384-well tissue culture plate was coated overnight at 4° C. with 20 μl anti-human CD3 at 0.1 μg/mL in plain RPMI, which was removed off the plate before 20 k/40 μl CD8 T cells with 0.5 μg/mL soluble anti-human CD28 were added to each well. The compounds were echoed to the cell plate immediately after the cells were plated. After 72 h incubation at 37° C. incubator, 10 μl CellTiter-glo reagent (Promega catalog number G7570) was added to each well. The plate was vigorously shaken for 5 mins, incubated at room temperature for another 15 mins and read on Envision for CD8 T cell proliferation. In analysis, 0.1 μg/mL anti-CD3 and 0.5 μg/mL anti-CD28 stimulated CD8 T cell signal was background.

[2] = tested on: pre-activated CD4 T cells and Raji cells; assay: Raji CD4 T Cell IL2 Assay; format: cell-based; settings: Homo sapiens, Raji

SMILES | EC50 ([1]; Homo sapiens, T-cell) [nM] | IC50 [2] [nM] | EC50 [1] [nM]
CC(C)C(c1ccc(F)cc1)N1CCN(c2c(C#N)c(=O)n(C)c3ccc(Cl)nc23)CC1 (single isomer, unassigned) [Example 315, 6-chloro-4-{4-[1-(4-fluorophenyl)-2-methylpropyl]piperazin-1-yl}-methyl-2-oxo-1,2-dihydro-1,5-naphthyridine-3-carbonitrile] | 1260 | 250 | 
Cn1c(=O)c(C#N)c(N2CCN(C(CC(C)(C)C)c3ccc(F)cc3)CC2)c2nc(Cl)ccc21 (single isomer, unassigned) [Example 377, 6-chloro-4-{4-[1-(4-fluorophenyl)-3,3-dimethylbutyl]piperazin-1-yl}-1-methyl-2-oxo-1,2-dihydro-1,5-naphthyridine-3-carbonitrile] |  |  | 10000
Cn1c(=O)c(C#N)c(N2CCN(C(CC(C)(C)C)c3ccc(F)cc3)CC2)c2nc(Cl)ccc21 (single isomer, unassigned) [Example 378, 6-chloro-4-{4-[1-(4-fluorophenyl)-3,3-dimethylbutyl]piperazin-1-yl}-1-methyl-2-oxo-1,2-dihydro-1,5-naphthyridine-3-carbonitrile] |  |  | 1740
Cn1c(=O)c(C#N)c(N2CCN(C(c3ccc(F)cc3)C3CCC3)CC2)c2nc(Cl)ccc21 (single isomer, unassigned) [Example 382, 6-chloro-4-{4-[cyclobutyl(4-fluorophenyl)methyl]piperazin-1-yl}-1-methyl-2-oxo-1,2-dihydro-1,5-naphthyridine-3-carbonitrile] |  |  | 1790
Cn1c(=O)c(C#N)c(N2CCN(C(c3ccc(F)cc3)C3CCC3)CC2)c2nc(Cl)ccc21 (single isomer, unassigned) [Example 383, 6-chloro-4-{4-[cyclobutyl(4-fluorophenyl)methyl]piperazin-1-yl}-1-methyl-2-oxo-1,2-dihydro-1,5-naphthyridine-3-carbonitrile] |  |  | 60
CC(c1ccc(F)cc1)N1CCN(c2c(C#N)c(=O)n(C)c3ccc(Cl)nc23)CC1 (single isomer, unassigned) [Example 387, 6-chloro-4-{4-[1-(4-fluorophenyl)ethyl]piperazin-1-yl}-1-methyl-2-oxo-1,2-dihydro-1,5-naphthyridine-3-carbonitrile] |  |  | 180
CC(c1ccc(F)cc1)N1CCN(c2c(C#N)c(=O)n(C)c3ccc(Cl)nc23)CC1 (single isomer, unassigned) [Example 388, 6-chloro-4-{4-[1-(4-fluorophenyl)ethyl]piperazin-1-yl}-1-methyl-2-oxo-1,2-dihydro-1,5-naphthyridine-3-carbonitrile] |  |  | 480
CCCCn1c(=O)c([N+](=O)[O-])c(N2CCN(C(c3ccccc3)c3ccccc3)CC2)c2ncccc21 [Example 177, 4-(4-benzhydrylpiperazin-1-yl)-1-butyl-3-nitro-1,5-naphthyridin-2(1H)-one] | 10000 |  | 
Cc1ccc2c(n1)c(N1CCN(C(C)c3ccc(F)cc3)CC1)c(Br)c(=O)n2C (stereo not drawn) [Example 224, 3-bromo-4-(4-(1-(4-fluorophenyl)ethyl)piperazin-1-yl)-1,6-dimethyl-1,5-naphthyridin-2(1H)-one] | 4280 |  | 
Cn1c(=O)c([N+](=O)[O-])c(N2CCN(Cc3cccc4ccccc34)CC2)c2nc(C#N)ccc21 [Example 415, 5-methyl-8-{4-[(naphthalen-1-yl)methyl]piperazin-1-yl}-7-nitro-6-oxo-5,6-dihydro-1,5-naphthyridine-2-carbonitrile] | 20 |  | 
COc1cc(C#N)ccc1CN1CCN(c2c(C#N)c(=O)n(C)c3ccc(Cl)nc23)CC1 [Example 424, 6-chloro-4-{4-[(4-cyano-2-methoxyphenyl)methyl]piperazin-1-yl}-1-methyl-2-oxo-1,2-dihydro-1,5-naphthyridine-3-carbonitrile] |  | > 100000 | 
